The source of these data is patent US20090270444A1, “1,7-Naphthyridines” (priority 2004, published 2009).

SMILES strings stand for the structures.

Common to all, as to format: biochemical
The target in one experiment is Human recombinant PDE5 (Homo sapiens, UniProt O76074). Put plainly: PDE5 IMAP fluorescence polarisation assay. The settings on record: accurate to within ±0.5, read-out: PDE5 mean pIC50 (converted). Here is the method: Human recombinant PDE5 is disclosed in K. Loughney et al., “Isolation and characterisation of cDNAs encoding PDE5A, a human cGMP-binding, cGMP-specific 3′,5′-cyclic nucleotide phosphodiesterase”, Gene, 1998, 216, 139-147.
(§1) The ability of compounds to inhibit PDE catalytic activity was determined by IMAP Fluorescence Polarisation (FP) assay (Molecular Devices Ltd code: R8062) in 384-well format. Test compounds (small volume, e.g. 0.5 μl, of solution in DMSO) were preincubated at ambient temperature in black 384-well microtitre plates (supplier: NUNC, code 262260) with PDE enzyme in 10 mM Tris-HCl buffer pH 7.2, 10 mM MgCl2, 0.1% (w/v) bovine serum albumin, 0.05% NaN3 for 10-30 minutes. The enzyme level was set so that reaction was linear throughout the incubation.
(§2) For the PDE3, PDE4B and PDE4D assays Fluorescein adenosine 3′,5′-cyclic phosphate (Molecular Devices Ltd code: R7091) was added to give ˜40 nM final concentration. For the PDE5 and PDE6 assays Fluorescein guanosine 3′,5′-cyclic phosphate (Molecular Devices Ltd code: R7090) was added to give ˜40 nM final concentration. Plates were mixed on an orbital shaker for 10 seconds and incubated at ambient temperature for 40 minutes. IMAP binding reagent (Molecular Devices Ltd code: R7207) was added (60 μl of a 1 in 400 dilution in binding buffer of the kit stock solution) to terminate the assay. Plates were allowed to stand at ambient temperature for 1 hour. The FP ratio of parallel to perpendicular light was measured using an Analyst™ plate reader (from Molecular Devices Ltd). […] Curves were analysed using ActivityBase and XLfit (ID Business Solutions Limited). Results were expressed as pIC50 values.
For orientation: Fluorescence polarisation rises when a labelled molecule tumbles more slowly, as on binding a larger partner.

The target of the next experiment is T1, PDE6 (Bos taurus, UniProt P11541+P23439).
T1 construct: PDE6 may be purified from bovine retina; from tissue; host or cells: bovine retina
T1 sequence (P11541 2-856 limits assumed): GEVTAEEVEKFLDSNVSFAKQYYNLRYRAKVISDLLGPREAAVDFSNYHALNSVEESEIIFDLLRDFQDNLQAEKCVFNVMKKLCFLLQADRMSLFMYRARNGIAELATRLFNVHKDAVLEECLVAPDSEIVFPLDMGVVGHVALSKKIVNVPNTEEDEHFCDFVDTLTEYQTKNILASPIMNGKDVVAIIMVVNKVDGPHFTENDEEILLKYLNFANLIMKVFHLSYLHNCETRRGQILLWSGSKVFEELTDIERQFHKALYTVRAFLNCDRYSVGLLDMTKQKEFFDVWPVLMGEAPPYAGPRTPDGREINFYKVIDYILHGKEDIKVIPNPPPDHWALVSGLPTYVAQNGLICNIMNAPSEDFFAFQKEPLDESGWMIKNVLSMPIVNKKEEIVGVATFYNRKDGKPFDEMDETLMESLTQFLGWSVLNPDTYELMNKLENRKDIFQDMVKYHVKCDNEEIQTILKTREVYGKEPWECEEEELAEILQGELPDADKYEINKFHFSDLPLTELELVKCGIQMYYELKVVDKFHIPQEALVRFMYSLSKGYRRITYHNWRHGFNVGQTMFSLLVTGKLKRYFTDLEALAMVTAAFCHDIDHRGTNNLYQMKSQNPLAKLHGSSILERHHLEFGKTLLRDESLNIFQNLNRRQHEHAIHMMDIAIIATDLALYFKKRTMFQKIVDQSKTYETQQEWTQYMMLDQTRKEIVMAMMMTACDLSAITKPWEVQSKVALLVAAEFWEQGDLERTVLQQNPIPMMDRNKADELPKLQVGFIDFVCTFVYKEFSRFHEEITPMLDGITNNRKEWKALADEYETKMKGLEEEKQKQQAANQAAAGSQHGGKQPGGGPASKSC
T1 sequence (P23439 2-850 limits assumed): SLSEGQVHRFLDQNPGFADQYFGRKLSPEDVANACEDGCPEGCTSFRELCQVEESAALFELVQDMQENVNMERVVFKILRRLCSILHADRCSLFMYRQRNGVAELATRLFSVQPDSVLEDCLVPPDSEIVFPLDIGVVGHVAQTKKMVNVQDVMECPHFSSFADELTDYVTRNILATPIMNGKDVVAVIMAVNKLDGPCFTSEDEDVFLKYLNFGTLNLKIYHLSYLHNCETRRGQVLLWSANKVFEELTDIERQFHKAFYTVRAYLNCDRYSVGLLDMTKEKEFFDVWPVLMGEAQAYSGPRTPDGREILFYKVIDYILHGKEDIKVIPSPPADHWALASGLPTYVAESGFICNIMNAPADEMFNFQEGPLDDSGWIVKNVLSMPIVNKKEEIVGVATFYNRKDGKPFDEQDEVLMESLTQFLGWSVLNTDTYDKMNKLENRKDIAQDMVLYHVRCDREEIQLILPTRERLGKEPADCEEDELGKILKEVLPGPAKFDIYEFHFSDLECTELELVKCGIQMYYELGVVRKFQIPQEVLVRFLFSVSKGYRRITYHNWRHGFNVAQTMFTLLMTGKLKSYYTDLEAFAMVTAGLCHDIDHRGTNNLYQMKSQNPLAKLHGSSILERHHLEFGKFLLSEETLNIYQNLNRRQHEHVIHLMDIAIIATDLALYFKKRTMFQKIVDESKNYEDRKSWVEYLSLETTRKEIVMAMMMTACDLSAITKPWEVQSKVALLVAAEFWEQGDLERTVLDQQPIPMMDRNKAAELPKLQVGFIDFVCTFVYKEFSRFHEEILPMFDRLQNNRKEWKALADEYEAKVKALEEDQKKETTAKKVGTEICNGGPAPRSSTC
Put plainly: PDE6 IMAP fluorescence polarisation assay. Particulars: PDE6 from bovine retina; accurate to within ±0.5; read-out: PDE6 mean pIC50 (converted).
Description: PDE6 may be purified from bovine retina as described by: P. Catty and P. Deterre, “Activation and solubilization of the retinal cGMP-specific phosphodiesterase by limited proteolysis”, Eur. J. Biochem., 1991, 199, 263-269; A. Tar et al. “Purification of bovine retinal cGMP phosphodiesterase”, Methods in Enzymology, 1994, 238, 3-12; and/or D. Srivastava et al. “Effects of magnesium on cyclic GMP hydrolysis by the bovine retinal rod cyclic GMP phosphodiesterase”, Biochem. J., 1995, 308, 653-658.
as §1, §2

The next experiment has as its target T2, Human recombinant PDE4B (Homo sapiens, UniProt Q07343).
T2 construct: made in house; host or cells: Saccharomyces cerevisiae strain GL62
Put plainly: PDE4B IMAP fluorescence polarisation assay. The settings on record: human recombinant PDE4B (HSPDE4B2B); accurate to within ±0.5; read-out: PDE4B mean pIC50 (converted).
Description: Human recombinant PDE4B, in particular the 2B splice variant thereof (HSPDE4B2B), is disclosed in WO 94/20079 and also in M. M. McLaughlin et al., “A low Km, rolipram-sensitive, cAMP-specific phosphodiesterase from human brain: cloning and expression of cDNA, biochemical characterisation of recombinant protein, and tissue distribution of mRNA”, J. Biol. Chem., 1993, 268, 6470-6476. For example, in Example 1 of WO 94/20079, human recombinant PDE4B is described as being expressed in the PDE-deficient yeast Saccharomyces cerevisiae strain GL62, e.g. after induction by addition of 150 uM CuSO4, and 100,000×g supernatant fractions of yeast cell lysates are described for use in the harvesting of PDE4B enzyme.
as §1
as §2, with “Plates were allowed to stand at ambient temperature for 1 hour.” left out

The next experiment addresses Human recombinant PDE4D (Homo sapiens, UniProt Q08499). Put plainly: PDE4D IMAP fluorescence polarisation assay. The settings on record: human recombinant PDE4D (HSPDE4D3A); accurate to within ±0.5; read-out: PDE4D mean pIC50 (converted). Here is the method:
Human recombinant PDE4D (HSPDE4D3A) is disclosed in P. A. Baecker et al., “Isolation of a cDNA encoding a human rolipram-sensitive cyclic AMP phoshodiesterase (PDE IVD)”, Gene, 1994, 138, 253-256.
as §1, §2

T2 sequence (Q07343 1-564 isoform Q07343-2): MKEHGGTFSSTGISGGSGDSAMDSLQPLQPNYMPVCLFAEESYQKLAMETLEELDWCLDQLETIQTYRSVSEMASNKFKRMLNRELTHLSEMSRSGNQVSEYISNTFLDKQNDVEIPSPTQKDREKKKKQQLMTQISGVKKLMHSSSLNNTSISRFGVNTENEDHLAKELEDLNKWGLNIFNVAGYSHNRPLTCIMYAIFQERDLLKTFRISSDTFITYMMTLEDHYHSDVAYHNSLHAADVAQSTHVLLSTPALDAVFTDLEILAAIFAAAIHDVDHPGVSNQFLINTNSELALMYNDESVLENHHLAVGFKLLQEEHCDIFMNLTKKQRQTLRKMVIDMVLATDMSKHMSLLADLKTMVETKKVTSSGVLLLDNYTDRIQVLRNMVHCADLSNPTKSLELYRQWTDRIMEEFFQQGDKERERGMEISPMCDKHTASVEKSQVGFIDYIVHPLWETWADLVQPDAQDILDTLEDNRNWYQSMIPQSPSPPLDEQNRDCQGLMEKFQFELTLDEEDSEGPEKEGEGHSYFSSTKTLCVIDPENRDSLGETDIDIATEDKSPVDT
Human recombinant PDE4D, sequence (Q08499 1-673 isoform Q08499-2): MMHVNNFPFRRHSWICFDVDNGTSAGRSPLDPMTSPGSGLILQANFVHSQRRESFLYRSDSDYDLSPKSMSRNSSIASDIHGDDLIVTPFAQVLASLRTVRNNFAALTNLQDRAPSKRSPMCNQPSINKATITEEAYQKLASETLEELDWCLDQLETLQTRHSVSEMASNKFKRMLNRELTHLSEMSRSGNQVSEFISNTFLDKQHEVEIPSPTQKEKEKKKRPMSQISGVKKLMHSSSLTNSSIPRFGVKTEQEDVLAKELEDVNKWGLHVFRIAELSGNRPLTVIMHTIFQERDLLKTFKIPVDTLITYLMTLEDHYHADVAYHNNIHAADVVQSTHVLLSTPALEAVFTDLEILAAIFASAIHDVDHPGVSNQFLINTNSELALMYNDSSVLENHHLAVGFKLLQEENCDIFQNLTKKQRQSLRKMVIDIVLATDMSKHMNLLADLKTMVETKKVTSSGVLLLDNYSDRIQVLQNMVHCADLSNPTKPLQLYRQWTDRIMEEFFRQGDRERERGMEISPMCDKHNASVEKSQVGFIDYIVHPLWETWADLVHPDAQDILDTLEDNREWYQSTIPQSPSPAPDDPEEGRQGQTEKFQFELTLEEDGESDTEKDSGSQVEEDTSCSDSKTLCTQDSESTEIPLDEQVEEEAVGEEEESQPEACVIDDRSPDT

With `Cc1nc([S+](C)[O-])cc2c(Nc3cccc4c3CCO4)c(C(N)=O)cnc12` (racemic) [Example 3, (±)-4-(2,3-Dihydro-1-benzofuran-4-ylamino)-8-methyl-6-(methylsulfinyl)-1,7-naphthyridine-3-carboxamide], the IC50 was above 10000 nM at Human recombinant PDE5, above 10000 nM on PDE6, 0.398 nM on Human recombinant PDE4B and 0.631 nM on Human recombinant PDE4D.

In the case of `CSc1cc2c(Nc3cccc4c3CCO4)c(C(N)=O)cnc2c(C)n1` [Example 1, 4-(2,3-Dihydro-1-benzofuran-4-ylamino)-8-methyl-6-(methylthio)-1,7-naphthyridine-3-carboxamide], the IC50 at Human recombinant PDE5 is above 10000 nM; at PDE6 it was above 10000 nM; at Human recombinant PDE4B, 0.316 nM; on Human recombinant PDE4D, 0.316 nM.

For the molecule `Cc1nc(S(C)(=O)=O)cc2c(Nc3cccc4c3CCO4)c(C(N)=O)cnc12` [Example 2, 4-(2,3-Dihydro-1-benzofuran-4-ylamino)-8-methyl-6-(methylsulfonyl)-1,7-naphthyridine-3-carboxamide], the IC50 at Human recombinant PDE5 is above 10000 nM; at PDE6 it was above 10000 nM; on Human recombinant PDE4B it was 0.126 nM; at Human recombinant PDE4D, 0.2 nM.
